US9447130B1, “Process for the preparation of dicycloplatin” (Syn-Nat Products Enterprise LLC, priority 2015, dated 2016)

Columns and labels:
[1] = stability of dicycloplatin to heat / hot water (evaporation, slurry); format: physicochemical
Procedure: • 1) Dissolved 50.0 mg of carboplatin (135 μmol) in 2.8 mL of water in a 3-mL glass vial at RT. • 2) Added 19.4 mg of 1,1-cyclobutane dicarboxylic acid (135 μmol) into the same vial. • 3) Stirred the suspension at RT to obtain a clear solution. • 4) Transferred the clear solution to a 25-mL round-bottom flask and rotary evaporated at a temperature between 50° C. and 55° C. to obtain white crystal solid. • 5) Air-dried the solid to obtain a product.
(§1) Moreover, in additional polymorph studies of dicycloplatin, it was recognized that the use of shorter aliphatic alcohols (as reported in U.S. Pat. No. 6,699,901) such as methanol, ethanol, isopropanol and butanol led to a significant amount of carboplatin being left in the product because of disproportionation. […] Thus, recrystallization in water was not efficient and was difficult to scale up.

[2] = water solubility of dicycloplatin; format: physicochemical; settings: room temperature
Excerpt: as §1

[3] = cited from earlier work

dicycloplatin
thermal stability during evaporation ([1]; evaporation step of the reported process (U.S. Pat. No. 6,699,901)): sensitive to high temperature
stability of a slurry in hot water ([1]; slurry in hot water): partial hydrolysis
water solubility [2]: 40 mg/mL
recommended Phase II dosage ([3]; DCP-containing chemotherapy): 450 mg/m^2
bioavailability and stability in vivo ([3]; in vivo, Chinese cancer patients): favorable
